Data set [1] can be described thus: Human liver microsome (HLM) assay. As to conditions: human liver microsomes, 5 μM test compound. It counts as in vitro ADME. The method in brief: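 LC-MS quantified test compound remaining after 0 and 2 h incubation with human liver microsomes. Triplicate samples, clarified by 10 min centrifugation at 14000 g.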
(Liver microsomes are a subcellular fraction often used to study metabolism.)

Data set [2] is described as follows: Determination of inhibitor concentration in mouse plasma after intraperitoneal and oral dosing. It counts as in vivo. The method in brief:
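Plasma levels quantified by HPLC or LC-MS using a standard curve prepared in mouse plasma, following ethyl acetate extraction with internal standard and sodium hydroxide. Sampling at 0.5, 1, 4 h (ocular bleed) and 7 h (cardiac puncture) after oral or intraperitoneal dosing.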

Data set [3] concerns the target unphosphorylated VEGF-R2Δ50 (FLVK) (Homo sapiens, UniProt P35968, DEL940-989/E990V). Briefly: VEGF-R2 coupled spectrophotometric assay, unphosphorylated VEGF-R2Δ50 (FLVK). The conditions noted are these: FLVK Ki, Table 1.
[4] abbreviates: IP, 25 mg/kg, vehicle PEG400:H2O pH 2.3 60:40.
Where [5] appears, read: PO, 50 mg/kg, vehicle PEG400:H2O pH 2.3 60:40.
The mark [6] stands for this setting: female, IP, 25 mg/kg, vehicle PEG400:H2O pH 2.3 60:40, read-out: Cmin (7 hr conc.).
[7] abbreviates: female, PO, 50 mg/kg, vehicle PEG400:H2O pH 2.3 60:40, read-out: Cmin (7 hr conc.).
The mark [8] stands for this setting: IP, 25 mg/kg, vehicle PEG400:H2O pH 2.3 30:70.
Setting [9] is: PO, 50 mg/kg, vehicle PEG400:H2O pH 2.3 30:70.
[10] abbreviates: female, IP, 25 mg/kg, vehicle PEG400:H2O pH 2.3 30:70, read-out: Cmin (7 hr conc.).
[11] abbreviates: female, PO, 50 mg/kg, vehicle PEG400:H2O pH 2.3 30:70, read-out: Cmin (7 hr conc.).
Setting [12] is: PO, 25 mg/kg, vehicle PEG400:H2O pH 2.3 30:70.
Setting [13] is: female, PO, 25 mg/kg, vehicle PEG400:H2O pH 2.3 30:70.
[14] abbreviates: female, PO, 25 mg/kg, vehicle PEG400:H2O pH 2.3 30:70, read-out: Cmin (7 hr conc.).
[15] abbreviates: female, IP, 25 mg/kg, vehicle PEG400:H2O pH 2.3 30:70.

Structures are written as SMILES. Like-named read-outs stand apart in the source and are kept apart here.

Chain of unphosphorylated VEGF-R2Δ50 (FLVK) (P35968 with tags, fused parts or gaps DEL940-989/E990V limits assumed): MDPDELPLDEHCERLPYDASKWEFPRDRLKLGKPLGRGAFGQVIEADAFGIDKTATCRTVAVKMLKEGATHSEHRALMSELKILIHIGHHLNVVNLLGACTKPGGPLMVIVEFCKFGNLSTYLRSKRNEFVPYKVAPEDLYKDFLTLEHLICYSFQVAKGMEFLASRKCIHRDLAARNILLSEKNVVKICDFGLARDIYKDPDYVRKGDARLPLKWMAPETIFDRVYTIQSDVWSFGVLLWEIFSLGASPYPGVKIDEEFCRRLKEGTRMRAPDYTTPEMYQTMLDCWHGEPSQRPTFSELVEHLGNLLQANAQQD

Usually Cmax stands for the peak of the concentration-time curve. The Ki is a dissociation constant, usually derived from enzyme kinetics or from competition with a known ligand. Consider `O=C(Nc1cccc(C(=O)c2ccc3c(/C=C/c4ccccc4)n[nH]c3c2)c1)c1ccncc1` [Example 19(j), 6-[3-(Pyridin-4-ylcarboxamido)benzoyl]-3-E-styryl-1H-indazole], for which the “% remain (HLM, 2 h)” value in data set [1] is 66%. Moreover, the AUClast in data set [2] (setting [4]) stood at 23205 ng·h/mL; in data set [2] (setting [5]) it was 5889 ng·h/mL. Also, the highest concentration (Cmax) in data set [2] (setting [4]) came to 5764 ng/mL; in data set [2] (setting [5]), 1937 ng/mL. For the same compound, the “plasma half-life (T1/2)” value in data set [2] (setting [4]) is 1.6 h; in data set [2] (setting [5]) it was 1.2 h. Moreover, the concentration at 7 h in data set [2] (setting [6]) stood at 456 ng/mL; in data set [2] (setting [7]), 63 ng/mL. In data set [3], this compound registered an inhibition constant Ki of 0.33 nM.
On to `O=C(Nc1cccc(Oc2ccc3c(/C=C/c4ccccn4)n[nH]c3c2)c1)c1ccccc1` [Example 31(a), 6-[3-Benzamidophenoxy]-3-E-[2-(pyridin-2-yl)ethenyl]-1H-indazole], for which, in data set [1], the “% remain (HLM, 2 h)” value worked out at 58%. In data set [2] (setting [8]), the AUClast is 47538 ng·h/mL, the highest concentration (Cmax) worked out at 13018 ng/mL and the “plasma half-life (T1/2)” value is 2.4 h. Further, in data set [2] (setting [9]), the AUClast worked out at 40863 ng·h/mL, the Cmax amounted to 14499 ng/mL and the “plasma half-life (T1/2)” value came to 1.6 h. The concentration at 7 h in data set [2] (setting [10]) came to 1910 ng/mL. Further, the concentration at 7 h in data set [2] (setting [11]) came out at 834 ng/mL. Further, in data set [3], the inhibition constant (Ki) stood at 0.29 nM.
Usually AUC(0-t) stands for exposure summed from dosing to a finite time, without extrapolation to infinity. As to `Cn1ccnc1C(=O)Nc1cccc(Oc2ccc3c(/C=C/c4ccccn4)n[nH]c3c2)c1` [Example 31(e), 6-[3-((1-Methylimidazol-2-yl)carboxaniido)phenoxy]-3-E-[2-(pyridin-2-yl)ethenyl]-1H-indazole], the “% remain (HLM, 2 h)” value in data set [1] is reported as 49%. Also, in data set [2] (setting [12]), the “plasma half-life (T1/2)” value is 13.1 h. This compound came in with an AUC(0-t) in data set [2] (setting [13]) of over 30300 ng·h/mL. Moreover, the concentration at 7 h in data set [2] (setting [14]) is 2950 ng/mL. This compound also had a Ki in data set [3] of 0.02 nM.
`O=C(Nc1ccccc1)c1ccccc1Sc1ccc2c(/C=C/c3ccccn3)n[nH]c2c1` [Example 33(c), 6-[2-(Phenylcarbamoyl)phenylsulfanyl]-3-E-[2-(pyridin-2-yl)ethenyl]-1H-indazole]: the “% remain (HLM, 2 h)” value in data set [1] is given as 16%. Also, in data set [2] (setting [8]), the AUClast is 697 ng·h/mL, the Cmax turned out to be 505 ng/mL and the “plasma half-life (T1/2)” value came out at 1.2 h. For the same compound, in data set [2] (setting [9]), the AUClast was determined as 183 ng·h/mL, the maximum concentration (Cmax) was 94 ng/mL and the “plasma half-life (T1/2)” value is 3.0 h. The concentration at 7 h in data set [2] (setting [10]) was determined as 7 ng/mL. Moreover, the concentration at 7 h in data set [2] (setting [11]) is 5 ng/mL. In data set [3], this compound showed a Ki of 0.28 nM.
Consider `O=C(NC1CC1)c1ccccc1Sc1ccc2c(/C=C/c3ccccn3)n[nH]c2c1` [Example 33(e), 6-[2-(Cyclopropylcarbamoyl)phenylsulfanyl]-3-E-[2-(pyridin-2-yl)ethenyl]-1H-1H-indazole], for which the “% remain (HLM, 2 h)” value in data set [1] was 54%. The AUClast turned out to be 14323 ng·h/mL in data set [2] (setting [8]) and 13290 ng·h/mL in data set [2] (setting [9]). Besides, the figures for the “plasma half-life (T1/2)” value in data set [2] (setting [8]) and in data set [2] (setting [9]) were 1.0 h and 0.7 h, respectively. Besides, the values for the concentration at 7 h in data set [2] (setting [10]) and in data set [2] (setting [11]) were 94 ng/mL and 12 ng/mL, respectively. Besides, affinity in data set [3] was put at a Ki of 1.7 nM.
Regarding `O=C(NCC(F)(F)F)c1ccccc1Sc1ccc2c(/C=C/c3ccccn3)n[nH]c2c1` [Example 33(f), 6-[2-(2,2,2-Trifluoroethylcarbamoyl)phenylsulfanyl]-3-E-[2-(pyridin-2-yl)ethenyl]-1H-indazole], in data set [1], the “% remain (HLM, 2 h)” value amounted to 31%. In addition, the results for the AUClast in data set [2] (setting [8]) and in data set [2] (setting [9]) were 1887 ng·h/mL and 1436 ng·h/mL, respectively. For the same compound, the “plasma half-life (T1/2)” value in data set [2] (setting [8]) was 2.4 h; in data set [2] (setting [9]), 0.7 h. In addition, the concentration at 7 h in data set [2] (setting [10]) is 6 ng/mL; in data set [2] (setting [11]), 3 ng/mL. The compound further yielded an inhibition constant Ki in data set [3] of 8 nM.
Turning to `O=C(NCc1cccc(F)c1)c1ccccc1Sc1ccc2c(/C=C/c3ccccn3)n[nH]c2c1` [Example 35(ff)], in data set [1], the “% remain (HLM, 2 h)” value is 31%. Moreover, the exposure AUC(0-t) in data set [2] (setting [15]) is over 6300 ng·h/mL. Besides, the peak concentration (Cmax) in data set [2] (female, IP, 25 mg/kg, vehicle PEG400:H2O pH 2.3 30:70, read-out: Cmax) is over 4000 ng/mL. Further, the concentration at 7 h in data set [2] (setting [10]) is 72 ng/mL. Also, the inhibition constant Ki in data set [3] worked out at 0.11 nM.
In the case of `CC(=O)c1ccc(C(=O)Nc2cccc(C(=O)c3ccc4c(/C=C/c5ccccn5)n[nH]c4c3)c2)s1` [Example 41(e), 6-[3-((5-Acetylthien-2-yl)carboxamido)benzoyl]-3-E-[2-(pyridin-2-yl)ethenyl]-1H-indazole], the “% remain (HLM, 2 h)” value in data set [1] was 22%. In data set [2] (setting [4]), the AUClast turned out to be 4900 ng·h/mL, the maximum concentration (Cmax) amounted to 1154 ng/mL and the “plasma half-life (T1/2)” value stood at 1.6 h. Also, in data set [2] (setting [5]), the AUClast stood at 302 ng·h/mL, the maximum concentration (Cmax) came out at 113 ng/mL and the “plasma half-life (T1/2)” value was determined as 1.6 h. The concentration at 7 h in data set [2] (setting [6]) worked out at 301 ng/mL. Also, the concentration at 7 h in data set [2] (setting [7]) amounted to 7 ng/mL. Also, in data set [3], the inhibition constant Ki is 0.22 nM.
Turning to `Cc1cc(C(=O)Nc2cccc(C(=O)c3ccc4c(/C=C/c5ccccn5)n[nH]c4c3)c2)n[nH]1` [Example 41(g), 6-[3-((5-Methyl-1H-pyrazol-3-yl)carboxamido)benzoyl]-3-E-[2-(pyridin-2-yl)ethenyl]-1H-indazole], the “% remain (HLM, 2 h)” value in data set [1] is given as 52%. Moreover, the AUClast in data set [2] (setting [4]) came to 1925 ng·h/mL; in data set [2] (setting [5]), 508 ng·h/mL. Further, the “plasma half-life (T1/2)” value in data set [2] (setting [4]) was determined as 0.3 h; in data set [2] (setting [5]), 0.7 h. Also, the concentration at 7 h in data set [2] (setting [6]) came to 0 ng/mL; in data set [2] (setting [7]), 1 ng/mL. For the same compound, in data set [3], the affinity corresponds to a Ki of 0.1 nM.
`Cc1cc(C(=O)Nc2cccc(C(=O)c3ccc4c(/C=C/c5ccccn5)n[nH]c4c3)c2)on1` [Example 41(m), 6-[3-((3-Methylisoxazol-5-yl)carboxamido)benzoyl]-3-E-[2-(pyridin-2-yl)ethenyl]-1H-indazole]: the “% remain (HLM, 2 h)” value in data set [1] worked out at 0%. Besides, in data set [2] (setting [8]), the AUClast amounted to 1864 ng·h/mL and the “plasma half-life (T1/2)” value turned out to be 2.3 h. For the same compound, in data set [2] (setting [9]), the AUClast was found to be 9 ng·h/mL, the Cmax stood at 5 ng/mL and the “plasma half-life (T1/2)” value is recorded as “blq”. Besides, the Ki in data set [3] was 0.75 nM.
In the case of `O=C(c1cccc(NC(=O)c2ccc(Cl)s2)c1)c1ccc2c(/C=C/c3ccccn3)n[nH]c2c1` [Example 41(o), 6-[3-((5-Chlorothien-2-yl)carboxamido)benzoyl]-3-E-[2-(pyridin-2-yl)ethenyl]-1H-indazole], the “% remain (HLM, 2 h)” value in data set [1] is on record as 94%. In addition, in data set [2] (setting [9]), the AUClast came out at 14717 ng·h/mL and the “plasma half-life (T1/2)” value was determined as 1.7 h. The same compound returned an AUC(0-t) in data set [2] (setting [15]) of over 33800 ng·h/mL. Moreover, in data set [2] (setting [10]), the concentration at 7 h was over 5000 ng/mL. Also, the concentration at 7 h in data set [2] (setting [11]) amounted to 427 ng/mL. In data set [3], this compound showed a Ki of 0.05 nM.
Take `C=CCn1nc(C)cc1C(=O)Nc1cccc(C(=O)c2ccc3c(/C=C/c4ccccn4)n[nH]c3c2)c1` [Example 41(t), 6-[3-((1-Allyl-3-methyl-1H-pyrazol-5-yl)carboxamido)benzoyl]-3-E-[2-(pyridin-2-yl)ethenyl]-1H-indazole]: the “% remain (HLM, 2 h)” value in data set [1] is on record as 87%. In addition, the “plasma half-life (T1/2)” value in data set [2] (setting [12]) was 4.0 h. This compound also came in with an AUC(0-t) in data set [2] (setting [13]) of over 22500 ng·h/mL. The concentration at 7 h in data set [2] (setting [14]) came to 1350 ng/mL. Further, in data set [3], the inhibition constant Ki was determined as 0.06 nM.
For `O=C(Nc1cccc(C(=O)c2ccc3c(-c4nc5ccccc5[nH]4)n[nH]c3c2)c1)c1ccccc1` [Example 42(b), 6-(3-Benzamidobenzoyl)-3-(1H-benzoimidazol-2-yl)-1H-indazole], the “% remain (HLM, 2 h)” value in data set [1] stood at 81%. Also, the figures for the AUClast in data set [2] (setting [4]) and in data set [2] (setting [5]) were 3207 ng·h/mL and 4747 ng·h/mL, respectively. Besides, the “plasma half-life (T1/2)” value in data set [2] (setting [4]) and in data set [2] (setting [5]) was 3.0 h each time. In addition, the concentration at 7 h stood at 211 ng/mL in data set [2] (setting [6]) and 46 ng/mL in data set [2] (setting [7]). In addition, affinity in data set [3] was put at a Ki of 0.35 nM.

(Values after patent US6534524B1, “Indazole compounds and pharmaceutical compositions for inhibiting protein kinases, and methods for their use” (Agouron Pharmaceuticals, Inc., priority 1999, dated 2003).)
